Molecular target: H1047R PIK3CA enzyme (Homo sapiens, UniProt P42336, H1047R)
Assay: ADP-Glo Biochemical PIK3CA Kinase Assay

Chain of H1047R PIK3CA enzyme (P42336 whole entry H1047R): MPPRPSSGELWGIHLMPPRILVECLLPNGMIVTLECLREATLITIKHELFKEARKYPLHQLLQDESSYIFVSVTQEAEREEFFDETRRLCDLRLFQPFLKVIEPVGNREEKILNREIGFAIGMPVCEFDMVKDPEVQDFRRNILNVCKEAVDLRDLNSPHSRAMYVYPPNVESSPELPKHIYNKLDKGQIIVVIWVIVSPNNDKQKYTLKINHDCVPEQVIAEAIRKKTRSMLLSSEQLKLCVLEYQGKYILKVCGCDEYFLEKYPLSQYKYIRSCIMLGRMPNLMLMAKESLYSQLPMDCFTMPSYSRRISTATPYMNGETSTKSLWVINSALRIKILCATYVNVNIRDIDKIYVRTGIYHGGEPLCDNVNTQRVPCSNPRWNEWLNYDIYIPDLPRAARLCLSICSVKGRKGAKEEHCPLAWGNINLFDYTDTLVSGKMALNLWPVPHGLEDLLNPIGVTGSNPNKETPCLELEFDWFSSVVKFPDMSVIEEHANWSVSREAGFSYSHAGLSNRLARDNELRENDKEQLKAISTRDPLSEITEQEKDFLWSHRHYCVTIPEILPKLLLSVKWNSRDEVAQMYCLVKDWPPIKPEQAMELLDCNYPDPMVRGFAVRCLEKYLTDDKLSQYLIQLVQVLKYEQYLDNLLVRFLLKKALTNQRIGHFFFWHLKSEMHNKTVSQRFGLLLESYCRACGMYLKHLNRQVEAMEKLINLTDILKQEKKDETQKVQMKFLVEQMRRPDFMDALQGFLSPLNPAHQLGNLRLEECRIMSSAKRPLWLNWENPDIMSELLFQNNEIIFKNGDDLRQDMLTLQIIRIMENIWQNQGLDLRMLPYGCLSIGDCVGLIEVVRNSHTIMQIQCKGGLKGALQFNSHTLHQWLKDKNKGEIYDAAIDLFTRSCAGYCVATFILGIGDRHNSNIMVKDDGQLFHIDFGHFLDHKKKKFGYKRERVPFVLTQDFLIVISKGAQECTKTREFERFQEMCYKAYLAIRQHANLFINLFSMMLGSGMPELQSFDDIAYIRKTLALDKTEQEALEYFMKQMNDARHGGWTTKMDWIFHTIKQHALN
Chain of H1047R PIK3CA enzyme (P27986 whole entry partner): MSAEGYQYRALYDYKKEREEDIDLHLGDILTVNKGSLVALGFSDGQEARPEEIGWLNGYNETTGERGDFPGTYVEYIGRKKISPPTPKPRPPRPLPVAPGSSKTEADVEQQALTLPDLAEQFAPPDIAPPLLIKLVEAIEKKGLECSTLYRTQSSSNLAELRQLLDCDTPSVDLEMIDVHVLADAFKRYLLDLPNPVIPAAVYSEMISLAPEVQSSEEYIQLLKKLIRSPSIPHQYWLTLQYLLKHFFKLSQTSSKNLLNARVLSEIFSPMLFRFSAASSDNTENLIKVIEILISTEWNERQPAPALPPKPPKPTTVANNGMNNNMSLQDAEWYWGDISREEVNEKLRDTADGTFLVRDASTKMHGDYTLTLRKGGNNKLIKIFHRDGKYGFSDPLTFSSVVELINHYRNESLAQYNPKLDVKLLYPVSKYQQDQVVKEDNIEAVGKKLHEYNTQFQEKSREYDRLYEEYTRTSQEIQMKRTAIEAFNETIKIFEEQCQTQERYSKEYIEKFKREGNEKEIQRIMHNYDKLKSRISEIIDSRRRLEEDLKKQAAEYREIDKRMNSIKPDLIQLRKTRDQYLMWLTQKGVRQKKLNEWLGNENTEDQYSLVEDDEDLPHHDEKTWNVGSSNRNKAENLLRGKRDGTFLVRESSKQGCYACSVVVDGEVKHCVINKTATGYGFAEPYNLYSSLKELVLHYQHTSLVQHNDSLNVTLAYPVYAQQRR

Compound	IC50 [µM]
Nc1cnc2ccc(-c3cc(NC(=O)c4cc(F)cc(C(F)(F)F)c4)c4c(c3)C(=O)NC4c3cc(F)ccc3Cl)cn12 (stereo not drawn) [Compound I-1409]	≤ 0.1
CN(C)/C=N/c1cc(Br)cc2c1C(c1cc(F)ccc1Br)NC2=O (stereo not drawn) [Compound I-326]	10 to 100
N#Cc1ccc(Cl)c(C2NC(=O)c3cccc(NC(=O)c4cc(F)cc(C(F)(F)F)c4)c32)c1 (stereo not drawn) [Compound I-485]	10 to 100
O=C(Nc1cccc2c1C(c1cc(F)ccc1Cl)NC2=O)c1cc(Br)cc(C(F)(F)F)c1 (stereo not drawn) [Compound I-447]	1 to 10
O=C(Nc1cccc2c1C(c1cc(F)ccc1Cl)NC2=O)c1csc2c1CCOC2 (stereo not drawn) [Compound I-2266]	0.1 to 0.5
N#CC1(n2cc(-c3cc(NC(=O)c4cc(F)cc(C(F)(F)F)c4)c4c(c3)C(=O)NC4c3cc(F)ccc3Cl)cn2)CC1 (stereo not drawn) [Compound I-1800]	≤ 0.1
O=C(Nc1cc(-c2cnn(-c3cscn3)c2)cc2c1C(c1cc(F)ccc1Cl)NC2=O)c1cc(F)cc(C(F)(F)F)c1 (stereo not drawn) [Compound I-1571]	≤ 0.1
O=C(Nc1cc(-n2cccn2)cc2c1[C@@H](c1cc(F)ccc1Cl)NC2=O)c1cc(F)cc(C(F)(F)F)c1 [Compound I-1070]	1 to 10
N#Cc1cc(-c2cc(NC(=O)c3cc(F)cc(C(F)(F)F)c3)c3c(c2)C(=O)N[C@H]3c2cc(F)ccc2Cl)cn2ncnc12 [Compound I-1882]	≤ 0.1
CC(C)(C#N)c1cc(NC(=O)c2cc(F)cc(C(F)(F)F)c2)c2c(c1)C(=O)NC2c1cc(F)ccc1Cl (stereo not drawn) [Compound I-1268]	≤ 0.1
O=C1N[C@H](c2cc(F)ccc2Cl)c2c(NC(=O)N3CCOCC(F)(F)C3)cc(Br)cc21 (single isomer, unassigned) [Compound I-2243]	10 to 100
Cc1ccccc1C1NC(=O)c2cccc(NC(=O)c3ccsn3)c21 (stereo not drawn) [Compound I-451]	10 to 100
COC(=O)c1cc(NC(=O)c2cc(F)cc(C(F)(F)F)c2)c2c(c1)C(=O)NC2c1cc(F)ccc1Cl (stereo not drawn) [Compound I-373]	≤ 0.1
CC(O)(c1ccncc1)c1cc(NC(=O)c2cc(F)cc(C(F)(F)F)c2)c2c(c1)C(=O)NC2c1cc(F)ccc1Cl (stereo not drawn) [Compound I-1403]	≤ 0.1
Cc1ccccc1C1NC(=O)c2cccc(NC(=O)c3cnc(OC(C)C)c(F)c3)c21 (stereo not drawn) [Compound I-109]	10 to 100
O=C(Nc1ccnc2c1C(c1cccc(F)c1F)NC2=O)c1cc(F)cc(C(F)(F)F)c1 (stereo not drawn) [Compound I-174]	1 to 10
Cc1ccccc1[C@@H]1NC(=O)c2cccc(NC(=O)c3csc4c(F)cccc34)c21 [Compound I-37]	10 to 100
O=C1NC(c2cc(F)ccc2Cl)c2c(NC(=O)C34CC5CC(CC(C5)O3)C4)cccc21 (stereo not drawn) [Compound I-2303]	10 to 100
N#C[C@H]1C[C@@H](Oc2cc(NC(=O)c3cc(F)cc(C(F)(F)F)c3)c3c(c2)C(=O)NC3c2cc(F)ccc2Cl)C1 (mixture of isomers) [Compound I-1295]	≤ 0.1
Cc1ncc(-c2cc(NC(=O)c3cc(F)cc(C(F)(F)F)c3)c3c(c2)C(=O)N[C@H]3c2cc(F)ccc2Cl)cn1 [Compound I-784]	≤ 0.1
O=C1N[C@H](c2cc(F)ccc2Cl)c2c(NC(=O)N3C[C@](O)(CO)c4ccccc43)cccc21 [Compound I-2168]	10 to 100
CC(C)(O)c1cnc2ccc(-c3cc(NC(=O)c4cc(F)cc(C(F)(F)F)c4)c4c(c3)C(=O)N[C@@H]4c3cc(F)ccc3Cl)cc2c1 [Compound I-1605]	10 to 100
O=C(Nc1cnc(N2CC(F)(F)C2)c2c1C(c1cc(F)ccc1Cl)NC2=O)c1cc(F)cc(C(F)(F)F)c1 (stereo not drawn) [Compound I-320]	0.1 to 0.5

Compound	IC50 [µM]
O=C1N[C@H](c2cc(F)ccc2Cl)c2c(NC(=O)N3C[C@@](O)(C(F)(F)F)c4cc(F)ccc43)cc(F)cc21 (single isomer, unassigned) [Compound I-2629]	1 to 10
Cc1ccc2c(c1)N(C(=O)Nc1cccc3c1C(c1cc(F)ccc1Cl)NC3=O)CC2 (stereo not drawn) [Compound I-2470]	0.1 to 0.5
O=C1N[C@@H](c2cc(F)ccc2Cl)c2c(NC(=O)[C@H]3CC(C(F)(F)F)C[C@@H](O)C3)cc(Br)cc21 (single isomer, unassigned) [Compound I-2275]	10 to 100
O=C(Nc1cc(CN2CC(F)(F)C2)cc2c1C(c1cc(F)ccc1Cl)NC2=O)c1cc(F)cc(C(F)(F)F)c1 (stereo not drawn) [Compound I-348, N-(3-(2-Chloro-5-fluorophenyl)-6-((3,3-difluoroazetidin-1-yl)methyl)-1-oxoisoindolin-4-yl)-3-fluoro-5-(trifluoromethyl)benzamide]	≤ 0.1
CN(C)S(=O)(=O)Cc1cc(NC(=O)c2cc(F)cc(C(F)(F)F)c2)c2c(c1)C(=O)N[C@@H]2c1cc(F)ccc1Cl [Compound I-1488]	1 to 10
N#CCc1cc(NC(=O)N2C[C@](O)(C(F)(F)F)c3cc(F)ccc32)c2c(c1)C(=O)N[C@H]2c1cc(F)ccc1Cl (single isomer, unassigned) [Compound I-2625]	1 to 10
Cc1ccccc1[C@H]1NC(=O)c2cccc(NC(=O)c3nsc4ccccc34)c21 [Compound I-73]	0.5 to 1
O=C(Nc1cc(-c2ccc3nc(C(F)F)nn3c2)cc2c1[C@@H](c1cc(F)ccc1Cl)NC2=O)c1cc(F)cc(C(F)(F)F)c1 [Compound I-1986]	1 to 10
O=C(Nc1cc(-c2cnn(-c3ncccn3)c2)cc2c1C(c1cc(F)ccc1Cl)NC2=O)c1cc(F)cc(C(F)(F)F)c1 (single isomer, unassigned) [Compound I-1554]	1 to 10
O=C(Nc1cc(NCC(F)(F)F)nc2c1C(c1cc(F)ccc1Cl)NC2=O)c1cc(F)cc(C(F)(F)F)c1 (stereo not drawn) [Compound I-321]	≤ 0.1
COc1ccc2snc(C(=O)Nc3cccc4c3C(c3ccccc3C)NC4=O)c2c1 (stereo not drawn) [Compound I-129]	10 to 100
O=C(Nc1cccc2c1[C@H](c1cc(F)ccc1C(F)F)NC2=O)c1cc(F)cc(C(F)(F)F)c1 [Compound I-170]	≤ 0.1
O=C(Nc1cc(Cl)nc2c1C(c1cc(F)ccc1Cl)NC2=O)c1cc(F)cc(C(F)(F)F)c1 (stereo not drawn) [Compound I-545]	≤ 0.1
O=C1N[C@@H](c2cc(F)ccc2Cl)c2c(NC(=O)[C@H]3CCCNC3)cc(-c3ccc4ncnn4c3)cc21 (racemic) [Compound I-1847]	10 to 100
N#Cc1cc(NC(=O)N2C[C@](O)(C(F)(F)F)c3cc(F)ccc32)c2c(c1)C(=O)N[C@H]2c1cc(F)ccc1Cl (single isomer, unassigned) [Compound I-2561]	1 to 10
O=C1NC(c2cc(F)ccc2Cl)c2c1cc(-c1ccc3ncnn3c1)cc2N1CCN(C(=O)C(F)(F)F)CC1 (stereo not drawn) [Compound I-2046]	10 to 100
Cc1ccccc1C1NC(=O)c2cc(CF)cc(NC(=O)c3cc(F)cc(C(F)(F)F)c3)c21 (stereo not drawn) [Compound I-536]	≤ 0.1
O=C(CC1CCC(O)CC1)Nc1cc(-c2ccc3ncnn3c2)cc2c1C(c1cc(F)ccc1Cl)NC2=O (stereo not drawn) [Compound I-1913]	10 to 100
O=C1NC(c2cc(F)ccc2Cl)c2c(NC3CCNCC3)cc(-c3ccc4ncnn4c3)cc21 (stereo not drawn) [Compound I-2024]	10 to 100
O=C(Nc1cnc(N2CCOCC2)c2c1C(c1cc(F)ccc1Cl)NC2=O)c1cc(F)cc(C(F)(F)F)c1 (stereo not drawn) [Compound I-255]	1 to 10
N#Cc1cc(NC(=O)N2C[C@@](O)(C(F)(F)F)c3cc(F)ccc32)c2c(c1)C(=O)N[C@H]2c1cc(F)ccc1Cl (single isomer, unassigned) [Compound I-2559]	1 to 10
O=C(Nc1cc(-c2ccc3nnc(Cl)n3c2)cc2c1[C@H](c1cc(F)ccc1Cl)NC2=O)c1cc(F)cc(C(F)(F)F)c1 [Compound I-1734]	≤ 0.1
